Measured values: patent US11242344B2, “(4-hydroxypyrrolidin-2-yl)-heterocyclic compounds and methods of use thereof” (Genentech, Inc., priority 2017, dated 2022)

Columns and labels:
VHL Elongin B/C complex = VHL Elongin B/C complex (Homo sapiens (Human), UniProt P40337); assay: Fluorescence Polarization (FP) VHL Binding Assay; conditions: VHL binding, FP assay; geometric mean where more than one measurement
Description: The binding of test compounds to the VHL Elongin B/C complex was measured using a fluorescence polarization tracer competition assay. The VHL/Elongin B/C protein complex used in the assay was generated as follows. The coding region for amino acids E55-D213 of human VHL with N-terminal His6 tag with a TEV-protease cleavage site was co-expressed with Elongin B (residues M1-Q118) and Elongin C (Residues M17-C112) in E. coli. […] The purified VHL/Elongin B/C complex was dialyzed into formulation buffer: 20 mM Bis-Tris pH7.0, 150 mM NaCl, 1 mM DTT. A VHL fluorescence polarization probe (prepared in Example 91), consisted of a VHL ligand coupled to carboxytetramethylrhodamine (TAMRA); […] Compounds were prepared as a serial dilution in DMSO at a concentration 25-fold higher than the final desired concentration and acoustically dispensed (400 nl) into a ProxiPlate-384 Plus F, Black 384-shallow well Microplate (Part Number 6008260). DMSO was dispensed into wells designated for “VHL control” (without compound) wells. The “Assay Buffer” consisted of 50 mM Tris pH 8.0, 120 mM NaCl, 0.005% Nonidet P-40, and 1% DMSO (v/v). Assay Buffer containing […] VHL Elongin B/C complex was prepared and 5 μl dispensed using a BioRapTR (Beckman Coulter) into each well of the assay plate. Assay Buffer was also dispensed into “no VHL control” wells using the same method. A “pre-assay” fluorescence measurement was made using an Infinite® M1000 (Tecan) plate reader (Excitation 530 nm, Emission 574 nm, Bandwidth 10 nm). Assay Buffer containing 3.34 nM of the VHL FP probe was prepared in Assay Buffer and 5 μl dispensed into each well of the assay plate using a BioRapTR (Beckman Coulter). The final VHL/Elongin B/C protein concentration is 2.64 nM and the final probe concentration is 1.67 nM. Assay plates were briefly centrifuged and incubated for 1 hour at room temperature. “Post-assay” fluorescence polarization measurements were made as described for the “pre-assay” fluorescence measurement. Fluorescence polarization was calculated for each sample; taking into account the “pre-assay” fluorescence measurements and subtracting the fluorescence signal of the compound/VHL only (“pre-assay”) measurements from the “post-assay” fluorescence polarization measurements, for each plane of polarization. The data were analyzed using Genedata Screener software and normalized to the “no VHL control” and “VHL control” (without compound). IC50 values were calculated using a four parameter curve fit (Robust method).

[1] = molecular target: VHL co-expressed with Elongins B and C (Homo sapiens (Human), UniProt P40337); assay: Surface Plasmon Resonance Assay; assay type: binding; conditions: SPR measured VHL affinity; geometric mean where more than one measurement
Description: Using a Biacore T200, […] tagged VHL co-expressed with Elongins B and C were immobilized to a Biacore SA chip in running buffer without DMSO. Compounds were tested individually at varying concentrations in running buffer (50 mM HEPES pH 7.2, 150 mM NaCl, 0.5 mM TCEP, 0.001% Tween 20, 0.2% PEG3350, 2% DMSO) at 20° C. Sensorgrams were run in order from low to high concentration using a flow rate of 80 μL/min. Association and disassociation times were varied depending on the estimated potency of the compound tested. […] Galdeano et al, J. Med. Chem. 2014, 57, 8657-8663, herein incorporated by reference) which retained greater than 75% of the activity over the course of the run. Analysis of the binding curves and determination of the kinetic parameters were done using evaluation software (Version 2.0, Biacore).

Chain of VHL Elongin B/C complex (P40337 whole entry, looked up, the tested form may be a part): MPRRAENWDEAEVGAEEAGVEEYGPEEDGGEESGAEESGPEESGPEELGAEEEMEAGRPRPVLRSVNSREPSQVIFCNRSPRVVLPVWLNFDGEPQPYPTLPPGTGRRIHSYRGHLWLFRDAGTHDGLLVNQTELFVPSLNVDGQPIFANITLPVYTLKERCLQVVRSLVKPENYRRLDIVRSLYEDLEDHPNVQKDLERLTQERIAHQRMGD
Chain of VHL Elongin B/C complex (Q15370 whole entry partner, looked up, the tested form may be a part): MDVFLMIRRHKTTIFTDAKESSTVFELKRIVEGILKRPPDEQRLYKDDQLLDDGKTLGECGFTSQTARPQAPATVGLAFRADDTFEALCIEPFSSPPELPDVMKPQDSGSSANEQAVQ
Chain of VHL Elongin B/C complex (Q15369 whole entry partner, looked up, the tested form may be a part): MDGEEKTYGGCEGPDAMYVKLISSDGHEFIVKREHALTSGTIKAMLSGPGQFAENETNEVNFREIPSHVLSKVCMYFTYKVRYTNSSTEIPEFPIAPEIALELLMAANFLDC
Chain of VHL co-expressed with Elongins B and C (P40337 whole entry, looked up): as the sequence (P40337 whole entry, looked up, the tested form may be a part) above
Chain of VHL co-expressed with Elongins B and C (Q15370 whole entry partner, looked up): as the sequence (Q15370 whole entry partner, looked up, the tested form may be a part) above
Chain of VHL co-expressed with Elongins B and C (Q15369 whole entry partner, looked up): as the sequence (Q15369 whole entry partner, looked up, the tested form may be a part) above

| Structure (SMILES) | IC50 (VHL Elongin B/C complex) [µM] | Kd [1] [µM] |
| --- | --- | --- |
| CC(=O)N[C@H](C(=O)N1C[C@H](O)CC1C1=NC(=O)C(C)(c2ccc(-c3scnc3C)cc2)N1)C(C)(C)C (single isomer, unassigned) [Example 102.3] | 43.3 | 10.7 |
| Cc1cc(C(C(=O)N2C[C@H](O)CC2C2=NC(=O)C(C)(c3ccc(-c4scnc4C)cc3)N2)C(C)C)on1 (single isomer, unassigned) [Example 104.1] | 203 | 35.9 |
| Cc1cc(C(C(=O)N2C[C@H](O)CC2C2=NC(=O)C(C)(c3ccc(Br)cc3)N2)C(C)C)on1 (single isomer, unassigned) [Example 103.4] | 6.73 | 1.09 |
| Cc1cc(C(C(=O)N2C[C@H](O)CC2C2=NC(=O)C(C)(c3ccc(Br)cc3)N2)C(C)C)on1 (single isomer, unassigned) [Example 103.1] | > 400 | > 150 |
| Cc1cc(C(C(=O)N2C[C@H](O)CC2C2=NC(=O)C(C)(c3ccc(-c4scnc4C)cc3)N2)C(C)C)on1 (single isomer, unassigned) [Example 104.3] | 230 | 44.6 |
| CC(=O)N[C@H](C(=O)N1C[C@H](O)CC1C1=NC(=O)C(C)(c2ccc(-c3scnc3C)cc2)N1)C(C)(C)C (single isomer, unassigned) [Example 102.2] | 93.1 | 43.8 |
| Cc1cc(C(C(=O)N2C[C@H](O)CC2C2=NC(=O)C(C)(c3ccc(-c4scnc4C)cc3)N2)C(C)C)on1 (single isomer, unassigned) [Example 104.2] | > 400 | > 150 |
| CC(=O)N[C@H](C(=O)N1C[C@H](O)CC1C1=NC(=O)C(C)(c2ccc(Br)cc2)N1)C(C)(C)C (single isomer, unassigned) [Example 101.4] | 108 | 26.7 |
| CC(=O)N[C@H](C(=O)N1C[C@H](O)CC1C1=NC(=O)C(C)(c2ccc(Br)cc2)N1)C(C)(C)C (single isomer, unassigned) [Example 101.3] | > 200 | 332 |
| Cc1cc(C(C(=O)N2C[C@H](O)CC2C2=NC(=O)C(C)(c3ccc(Br)cc3)N2)C(C)C)on1 (single isomer, unassigned) [Example 103.2] | > 400 | > 150 |
| CC(=O)N[C@H](C(=O)N1C[C@H](O)CC1C1=NC(=O)C(C)(c2ccc(Br)cc2)N1)C(C)(C)C (single isomer, unassigned) [Example 101.1] | > 200 | > 500 |
| Cc1cc(C(C(=O)N2C[C@H](O)CC2C2=NC(=O)C(C)(c3ccc(-c4scnc4C)cc3)N2)C(C)C)on1 (single isomer, unassigned) [Example 104.4] | 0.422 | 0.171 |
| CC(=O)N[C@H](C(=O)N1C[C@H](O)CC1C1=NC(=O)C(C)(c2ccc(-c3scnc3C)cc2)N1)C(C)(C)C (single isomer, unassigned) [Example 102.1] | 6.17 | 1.96 |

More lines, now with the values ahead:

| IC50 (VHL Elongin B/C complex) [µM] | Kd [1] [µM] | Structure (SMILES) |
| --- | --- | --- |
| ≥ 400 | ≥ 150 | Cc1cc([C@@H](C(=O)N2C[C@H](O)C[C@H]2C2=NOC(c3ccc(Br)cc3)(C(F)(F)F)N2)C(C)C)on1 (single isomer, unassigned) [Example 133.2] |
| > 400 | > 0.3 | Cc1cc(C(C(=O)N2C[C@H](O)CC2C2=NC(=O)C(C)(c3ccc(-c4cccc(=O)n4C)cc3)N2)C(C)C)on1 (single isomer, unassigned) [Example 108.3] |
| 24.1 | 14.9 | Cc1cc(C(C(=O)N2C[C@H](O)CC2C2=NC(=O)C(C)(C)N2)C(C)C)on1 (single isomer, unassigned) [Example 107.2] |
| 11 | 3.95 | Cc1cc(C(C(=O)N2C[C@H](O)CC2C2=NC(=O)C(C)(c3ccc(-c4cccc(=O)n4C)cc3)N2)C(C)C)on1 (single isomer, unassigned) [Example 108.2] |
| 5.39 | 1.58 | Cc1cc(C(C(=O)N2C[C@H](O)CC2C2=NC(=O)C(C)(c3ccc(-c4cccnc4)cc3)N2)C(C)C)on1 (single isomer, unassigned) [Example 105.4] |
| > 400 | > 150 | Cc1cc(C(C(=O)N2C[C@H](O)CC2C2=NC(=O)C(C)(c3ccc(-c4cccnc4)cc3)N2)C(C)C)on1 (single isomer, unassigned) [Example 105.3] |
| > 400 | > 150 | Cc1cc(C(C(=O)N2C[C@H](O)CC2C2=NC(=O)C(C)(c3ccc(-c4cccnc4C)cc3)N2)C(C)C)on1 (single isomer, unassigned) [Example 106.2] |
| > 50 | > 150 | Cc1cc(C(C(=O)N2C[C@H](O)CC2C2=NC(=O)C(C)(C)N2)C(C)C)on1 (single isomer, unassigned) [Example 107.4] |
| > 50 | > 150 | Cc1cc(C(C(=O)N2C[C@H](O)CC2C2=NC(=O)C(C)(C)N2)C(C)C)on1 (single isomer, unassigned) [Example 107.3] |
| 57.5 | 13.9 | Cc1cc(C(C(=O)N2C[C@H](O)CC2C2=NC(=O)C(C)(c3ccc(-c4cccc(=O)n4C)cc3)N2)C(C)C)on1 (single isomer, unassigned) [Example 108.1] |
| > 400 | > 0.3 | Cc1cc(C(C(=O)N2C[C@H](O)CC2C2=NC(=O)C(C)(c3ccc(-c4cccc(=O)n4C)cc3)N2)C(C)C)on1 (single isomer, unassigned) [Example 108.4] |
| > 400 | > 150 | Cc1cc(C(C(=O)N2C[C@H](O)CC2C2=NC(=O)C(C)(c3ccc(-c4cccnc4C)cc3)N2)C(C)C)on1 (single isomer, unassigned) [Example 106.1] |
